In brackets after ≈: the same amount, converted by molar mass.
What was measured:
Assay type in all cases: functional
[1] = system: Mycobacterium tuberculosis; assay: Antitubercular activity against isoniazid resistant Mycobacterium tuberculosis H37Rv ATCC 35822 after 24 hrs by MABA method; settings: H37Rv ATCC 35822, 24 h
[2] = system: Mycobacterium tuberculosis; assay: Antitubercular activity against rifampicin resistant Mycobacterium tuberculosis H37Rv ATCC 35838 after 24 hrs by MABA method; settings: H37Rv ATCC 35838, 24 h
[3] = system: Mycobacterium tuberculosis; assay: Antitubercular activity against moxifloxacin resistant Mycobacterium tuberculosis H37Rv after 24 hrs by MABA method
[4] = system: Mycobacterium tuberculosis; assay: Antitubercular activity against bedaquiline resistant Mycobacterium tuberculosis H37Rv after 24 hrs by MABA method
[5] = system: Mycobacterium tuberculosis; assay: Antitubercular activity against streptomycin resistant Mycobacterium tuberculosis H37Rv ATCC 35820 after 24 hrs by MABA method; settings: H37Rv ATCC 35820, 24 h
[6] = system: Mycobacterium tuberculosis; assay: Antitubercular activity against capreomycin resistant Mycobacterium tuberculosis H37Rv after 24 hrs by MABA method

Row | SMILES | MIC90 [1] | MIC90 [2] | MIC90 [3] | MIC90 [4] | MIC90 [5] | MIC90 [6]
1 | O=C(N/N=C/c1ccc2no[n+]([O-])c2c1)c1ccncc1 | 8.59 µM (≈ 2.43 µg/mL) | 3.78 µM (≈ 1.07 µg/mL) | 5.72 µM (≈ 1.62 µg/mL) | 1.2 µM (≈ 0.34 µg/mL) | 17 µM (≈ 4.81 µg/mL) | 
2 | NC(=O)c1c(COc2ccc(/C=N/NC(=O)c3ccncc3)cc2)no[n+]1[O-] | > 262 µM | 1.99 µM (≈ 0.761 µg/mL) | 0.66 µM (≈ 0.252 µg/mL) | 6.38 µM (≈ 2.44 µg/mL) | > 262 µM | > 262 µM
3 | C[C@@H]1NC(=O)[C@@H](N)CNC(=O)[C@H]([C@H]2CCNC(=N)N2)NC(=O)/C(=C/NC(N)=O)NC(=O)[C@H](CNC(=O)C[C@@H](N)CCCN)NC1=O |  |  |  |  | 1.72 µM (≈ 1.12 µg/mL) | 60.5 µM (≈ 39.5 µg/mL)
4 | NC(=O)c1c(COc2ccccc2/C=N/NC(=O)c2ccncc2)no[n+]1[O-] | > 262 µM | 0.44 µM (≈ 0.168 µg/mL) | 0.81 µM (≈ 0.31 µg/mL) | 0.81 µM (≈ 0.31 µg/mL) | 27.4 µM (≈ 10.5 µg/mL) | > 262 µM
5 | NC(=O)c1c(COc2cccc(/C=N/NC(=O)c3ccncc3)c2)no[n+]1[O-] | > 262 µM | 2.31 µM (≈ 0.883 µg/mL) | 1.22 µM (≈ 0.466 µg/mL) | 2.56 µM (≈ 0.979 µg/mL) | > 262 µM | > 262 µM
6 | COc1nc2ccc(Br)cc2cc1[C@@H](c1ccccc1)[C@@](O)(CCN(C)C)c1cccc2ccccc12 [BEDAQUILINE] | 0.01 µM (≈ 0.00556 µg/mL) | 0.01 µM (≈ 0.00556 µg/mL) | 0.06 µM (≈ 0.0333 µg/mL) | 1.7 µM (≈ 0.944 µg/mL) | 0.06 µM (≈ 0.0333 µg/mL) | 0.06 µM (≈ 0.0333 µg/mL)
7 | NNC(=O)c1ccncc1 [ISONIAZID] | > 5 µM | 0.35 µM (≈ 0.048 µg/mL) | 0.28 µM (≈ 0.0384 µg/mL) | 0.23 µM (≈ 0.0315 µg/mL) | > 5 µM | > 5 µM
8 | COc1c(N2C[C@@H]3CCCN[C@@H]3C2)c(F)cc2c(=O)c(C(=O)O)cn(C3CC3)c12 [MOXIFLOXACIN] | 0.23 µM (≈ 0.0923 µg/mL) | 0.12 µM (≈ 0.0482 µg/mL) | > 8 µM | 0.26 µM (≈ 0.104 µg/mL) | 0.36 µM (≈ 0.145 µg/mL) | 0.35 µM (≈ 0.141 µg/mL)
9 | CO[C@H]1/C=C/O[C@@]2(C)Oc3c(C)c(O)c4c(O)c(c(/C=N/N5CCN(C)CC5)c(O)c4c3C2=O)NC(=O)/C(C)=C\C=C\[C@H](C)[C@H](O)[C@@H](C)[C@@H](O)[C@@H](C)[C@H](OC(C)=O)[C@@H]1C [RIFAMPIN] | 0.01 µM (≈ 0.00823 µg/mL) | > 1 µM |  | 0.04 µM (≈ 0.0329 µg/mL) | 0.03 µM (≈ 0.0247 µg/mL) | 0.21 µM (≈ 0.173 µg/mL)
10 | CN[C@@H]1[C@H](O[C@H]2[C@H](O[C@H]3[C@H](O)[C@@H](O)[C@H](N=C(N)N)[C@@H](O)[C@@H]3N=C(N)N)O[C@@H](C)[C@]2(O)C=O)O[C@@H](CO)[C@H](O)[C@H]1O [STREPTOMYCIN] |  |  |  |  | > 100 µM | 2.55 µM (≈ 1.48 µg/mL)

From ChEMBL document CHEMBL4028867, “Design, Synthesis, and Characterization of N-Oxide-Containing Heterocycles with in Vivo Sterilizing Antitubercular Activity” (J Med Chem, 2017)
